Patent US8952157B2, “Apoptosis-inducing agents for the treatment of cancer and immune and autoimmune diseases” (AbbVie Inc., priority 2008, dated 2015)
pKi: −log10 of the molar value.

Target: GST-Bcl-2 (Homo sapiens (Human), UniProt P10415)
Test: Time Resolved-Fluorescence Resonance Energy Transfer (TR-FRET) Bcl-2 binding assay
Conditions: GST-Bcl-2 1 nM, F-Bak peptide probe 100 nM, Tb-anti-GST antibody 1 nM; Ki by Wang's equation
Procedure, shortened: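 Ki values derived from TR-FRET displacement of F-Bak peptide from GST-Bcl-2, detected with Tb-labelled anti-GST antibody (ex 340, em 520/495 nm). Compound dilution series started at 50 μM (2× starting concentration); room-temperature incubation 3 hours.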

Chain of GST-Bcl-2 (P10415 whole entry): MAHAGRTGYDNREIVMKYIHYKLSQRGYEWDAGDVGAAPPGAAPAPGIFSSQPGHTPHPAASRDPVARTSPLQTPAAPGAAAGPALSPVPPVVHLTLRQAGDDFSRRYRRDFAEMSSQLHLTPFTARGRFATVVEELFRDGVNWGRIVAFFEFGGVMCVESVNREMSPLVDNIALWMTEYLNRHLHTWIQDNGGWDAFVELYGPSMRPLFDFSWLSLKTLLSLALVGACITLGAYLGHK

Compound: O=C(NS(=O)(=O)c1ccc(NCC2CCOCC2)c([N+](=O)[O-])c1)c1ccc(N2CCN(Cc3cc(CCN4CCCC4)ccc3-c3ccc(Cl)cc3)CC2)cc1Oc1cccc(Cl)c1 [Example 53, 2-(3-chlorophenoxy)-4-(4-((4′-chloro-4-(2-pyrrolidin-1-ylethyl)-1,1′-biphenyl-2-yl)methyl)piperazin-1-yl)-N-((3-nitro-4-((tetrahydro-2H-pyran-4-ylmethyl)amino)phenyl)sulfonyl)benzamide]
- pKi: 10.11

Compound: CN1CCC(Nc2ccc(S(=O)(=O)NC(=O)c3ccc(N4CCN(CC5=C(c6ccc(Cl)cc6)CC(C)(C)CC5)CC4)cc3Oc3cccc(Cl)c3Cl)cc2[N+](=O)[O-])CC1 [Example 54, 4-(4-((2-(4-chlorophenyl)-4,4-dimethylcyclohex-1-en-1-yl)methyl)piperazin-1-yl)-2-(2,3-dichlorophenoxy)-N-((4-((1-methylpiperidin-4-yl)amino)-3-nitrophenyl)sulfonyl)benzamide]
- pKi: 10.09

Compound: Cc1n[nH]c2cccc(Oc3cc(N4CCN(CC5=C(c6ccc(Cl)cc6)CC(C)(C)CC5)CC4)ccc3C(=O)NS(=O)(=O)c3ccc(NC4CCN(C)CC4)c([N+](=O)[O-])c3)c12 [Example 55, 4-(4-((2-(4-chlorophenyl)-4,4-dimethylcyclohex-1-en-1-yl)methyl)piperazin-1-yl)-2-((3-methyl-1H-indazol-4-yl)oxy)-N-((4-((1-methylpiperidin-4-yl)amino)-3-nitrophenyl)sulfonyl)benzamide]
- pKi: 10.05

Compound: CN1CCC(Nc2ccc(S(=O)(=O)NC(=O)c3ccc(N4CCN(CC5=C(c6ccc(Cl)cc6)CCCCC5)CC4)cc3Oc3ccccc3Cl)cc2[N+](=O)[O-])CC1 [Example 56, 2-(2-chlorophenoxy)-4-(4-((2-(4-chlorophenyl)cyclohept-1-en-1-yl)methyl)piperazin-1-yl)-N-((4-((1-methylpiperidin-4-yl)amino)-3-nitrophenyl)sulfonyl)benzamide]
- pKi: 9.97

Compound: CN1CCC(Nc2ccc(S(=O)(=O)NC(=O)c3ccc(N4CCN(CC5=C(c6ccc(Cl)cc6)CC(C)(C)CC5)CC4)cc3Oc3cccc(C(F)(F)F)c3)cc2[N+](=O)[O-])CC1 [Example 57, 4-(4-((2-(4-chlorophenyl)-4,4-dimethylcyclohex-1-en-1-yl)methyl)piperazin-1-yl)-N-((4-((1-methylpiperidin-4-yl)amino)-3-nitrophenyl)sulfonyl)-2-(3-(trifluoromethyl)phenoxy)benzamide]
- pKi: 9.83

Compound: CN(C)CCCNc1ccc(S(=O)(=O)NC(=O)c2ccc(N3CCN(Cc4ccccc4-c4ccc(Cl)cc4)CC3)cc2Oc2cccc3c2CCC(=O)N3)cc1[N+](=O)[O-] [Example 58, 4-(4-((4′-chloro-1,1′-biphenyl-2-yl)methyl)piperazin-1-yl)-N-((4-((3-(dimethylamino)propyl)amino)-3-nitrophenyl)sulfonyl)-2-((2-oxo-1,2,3,4-tetrahydroquinolin-5-yl)oxy)benzamide]
- pKi: 9.81

Compound: CN1CCC(Nc2ccc(S(=O)(=O)NC(=O)c3ccc(N4CCN(CC5=C(c6ccc(Cl)cc6)CC(C)(C)CC5)CC4)cc3Oc3ccccc3Cl)cc2S(=O)(=O)C(F)(F)F)CC1 [Example 59, 2-(2-chlorophenoxy)-4-(4-((2-(4-chlorophenyl)-4,4-dimethylcyclohex-1-en-1-yl)methyl)piperazin-1-yl)-N-((4-((1-methylpiperidin-4-yl)amino)-3-((trifluoromethyl)sulfonyl)phenyl)sulfonyl)benzamide]
- pKi: 9.74

Compound: CN1CCC(Nc2ccc(S(=O)(=O)NC(=O)c3ccc(N4CCN(CC5=C(c6ccc(Cl)cc6)CC(C)(C)CC5)CC4)cc3Oc3cc(Cl)ccc3Cl)cc2[N+](=O)[O-])CC1 [Example 60, 4-(4-((2-(4-chlorophenyl)-4,4-dimethylcyclohex-1-en-1-yl)methyl)piperazin-1-yl)-2-(2,5-dichlorophenoxy)-N-((4-((1-methylpiperidin-4-yl)amino)-3-nitrophenyl)sulfonyl)benzamide]
- pKi: 9.73

Compound: CN1CCC(Nc2ccc(S(=O)(=O)NC(=O)c3ccc(N4CCN(CC5=C(c6ccc(Cl)cc6)CC(C)(C)CC5)CC4)cc3Oc3ccc(F)cc3Cl)cc2[N+](=O)[O-])CC1 [Example 61, 2-(2-chloro-4-fluorophenoxy)-4-(4-((2-(4-chlorophenyl)-4,4-dimethylcyclohex-1-en-1-yl)methyl)piperazin-1-yl)-N-((4-((1-methylpiperidin-4-yl)amino)-3-nitrophenyl)sulfonyl)benzamide]
- pKi: 9.66

Compound: CN1CCC(Nc2ccc(S(=O)(=O)NC(=O)c3ccc(N4CCN(CC5=C(c6ccc(Cl)cc6)CC(C)(C)C5)CC4)cc3Oc3ccccc3Cl)cc2[N+](=O)[O-])CC1 [Example 62, 2-(2-chlorophenoxy)-4-(4-((2-(4-chlorophenyl)-4,4-dimethylcyclopent-1-en-1-yl)methyl)piperazin-1-yl)-N-((4-((1-methylpiperidin-4-yl)amino)-3-nitrophenyl)sulfonyl)benzamide]
- pKi: 9.64

Compound: Cc1c[nH]c2cccc(Oc3cc(N4CCN(CC5=C(c6ccc(Cl)cc6)CC(C)(C)CC5)CC4)ccc3C(=O)NS(=O)(=O)c3ccc(NCCCN4CCOCC4)c([N+](=O)[O-])c3)c12 [Example 63, 4-(4-((2-(4-chlorophenyl)-4,4-dimethylcyclohex-1-en-1-yl)methyl)piperazin-1-yl)-2-((3-methyl-1H-indol-4-yl)oxy)-N-((4-((3-morpholin-4-ylpropyl)amino)-3-nitrophenyl)sulfonyl)benzamide]
- pKi: 9.36

Compound: CN1CCC(Nc2ccc(S(=O)(=O)NC(=O)c3ccc(N4CCN(CC5=C(c6ccc(Cl)cc6)CC(C)(C)CC5)CC4)cc3Oc3cccc(C(F)(F)F)c3Cl)cc2[N+](=O)[O-])CC1 [Example 64, 4-(4-((2-(4-chlorophenyl)-4,4-dimethylcyclohex-1-en-1-yl)methyl)piperazin-1-yl)-2-(2-chloro-3-(trifluoromethyl)phenoxy)-N-((4-((1-methylpiperidin-4-yl)amino)-3-nitrophenyl)sulfonyl)benzamide]
- pKi: 9.34

Compound: Cc1c[nH]c2cccc(Oc3cc(N4CCN(CC5=C(c6ccc(Cl)cc6)CC(C)(C)CC5)CC4)ccc3C(=O)NS(=O)(=O)c3ccc(NC4CCN(C)CC4)c([N+](=O)[O-])c3)c12 [Example 66, 4-(4-((2-(4-chlorophenyl)-4,4-dimethylcyclohex-1-en-1-yl)methyl)piperazin-1-yl)-2-((3-methyl-1H-indol-4-yl)oxy)-N-((4-((1-methylpiperidin-4-yl)amino)-3-nitrophenyl)sulfonyl)benzamide]
- pKi: 9.23

Compound: CC1(C)CCC(CN2CCN(c3ccc(C(=O)NS(=O)(=O)c4ccc(NCCCN5CCOCC5)c([N+](=O)[O-])c4)c(Oc4cc(Cl)ccc4Cl)c3)CC2)=C(c2ccc(Cl)cc2)C1 [Example 67, 4-(4-((2-(4-chlorophenyl)-4,4-dimethylcyclohex-1-en-1-yl)methyl)piperazin-1-yl)-2-(2,5-dichlorophenoxy)-N-((4-((3-morpholin-4-ylpropyl)amino)-3-nitrophenyl)sulfonyl)benzamide]
- pKi: 9.09

Compound: Cn1ccc2c(Oc3cc(N4CCN(Cc5ccccc5-c5ccc(Cl)cc5)CC4)ccc3C(=O)NS(=O)(=O)c3ccc(NCCCN4CCOCC4)c([N+](=O)[O-])c3)cccc21 [Example 68, 4-(4-((4′-chloro-1,1′-biphenyl-2-yl)methyl)piperazin-1-yl)-2-((1-methyl-1H-indol-4-yl)oxy)-N-((4-((3-morpholin-4-ylpropyl)amino)-3-nitrophenyl)sulfonyl)benzamide]
- pKi: 8.23

Compound: O=C(NS(=O)(=O)c1ccc(NCCCN2CCOCC2)c([N+](=O)[O-])c1)c1ccc(N2CCN(Cc3ccccc3-c3ccc(Cl)cc3)CC2)cc1Oc1cccc(N2CCOCC2)c1 [Example 69, 4-(4-((4′-chloro-1,1′-biphenyl-2-yl)methyl)piperazin-1-yl)-2-(3-morpholin-4-ylphenoxy)-N-((4-((3-morpholin-4-ylpropyl)amino)-3-nitrophenyl)sulfonyl)benzamide]
- pKi: 8.08

Compound: CN(C)CCCNc1ccc(S(=O)(=O)NC(=O)c2ccc(N3CCN(Cc4ccccc4-c4ccc(Cl)cc4)CC3)cc2Oc2ccc3[nH]cc(CCC(=O)N4CCOCC4)c3c2)cc1[N+](=O)[O-] [Example 70, 4-(4-((4′-chloro-1,1′-biphenyl-2-yl)methyl)piperazin-1-yl)-N-((4-((3-(dimethylamino)propyl)amino)-3-nitrophenyl)sulfonyl)-2-((3-(3-morpholin-4-yl-3-oxopropyl)-1H-indol-5-yl)oxy)benzamide]
- pKi: 7.69

Compound: O=C(NS(=O)(=O)c1ccc(NCC2CCOCC2)c([N+](=O)[O-])c1)c1ccc(N2CCN(Cc3ccccc3-c3ccc(Cl)cc3)CC2)cc1Oc1cccc(OCc2ccccc2)c1 [Example 71, 2-(3-(benzyloxy)phenoxy)-4-(4-((4′-chloro-1,1′-biphenyl-2-yl)methyl)piperazin-1-yl)-N-((3-nitro-4-((tetrahydro-2H-pyran-4-ylmethyl)amino)phenyl)sulfonyl)benzamide]
- pKi: 7.50

Compound: N#Cc1ccc(Oc2cc(N3CCN(Cc4ccccc4-c4ccc(Cl)cc4)CC3)ccc2C(=O)NS(=O)(=O)c2ccc(NCC3CCOCC3)c([N+](=O)[O-])c2)cc1 [Example 72, 4-(4-((4′-chloro-1,1′-biphenyl-2-yl)methyl)piperazin-1-yl)-2-(4-cyanophenoxy)-N-((3-nitro-4-((tetrahydro-2H-pyran-4-ylmethyl)amino)phenyl)sulfonyl)benzamide]
- pKi: 7.50

Compound: O=C(NS(=O)(=O)c1ccc(NCC2CCOCC2)c([N+](=O)[O-])c1)c1ccc(N2CCN(Cc3ccccc3-c3ccc(Cl)cc3)CC2)cc1Oc1ccc2[nH]cc(CCC(=O)N3CCOCC3)c2c1 [Example 73, 4-(4-((4′-chloro-1,1′-biphenyl-2-yl)methyl)piperazin-1-yl)-2-((3-(3-morpholin-4-yl-3-oxopropyl)-1H-indol-5-yl)oxy)-N-((3-nitro-4-((tetrahydro-2H-pyran-4-ylmethyl)amino)phenyl)sulfonyl)benzamide]
- pKi: 7.49
